In ChEMBL document CHEMBL1132045, “New growth hormone secretagogues: C-terminal modified sulfonamide-analogues of NN703” (Bioorg Med Chem Lett, 1999) one finds EC50 data, which are given here for 5 compounds.

Molecules are shown by their SMILES. pEC50: −log10 of the molar value.

The species named for this assay is Rattus norvegicus. Description: Compound was tested in vitro for growth hormone release in rat pituitary model. Type of assay: functional.
One may read the pEC50 as the negative decadic logarithm of the EC50, by convention in mol/L. The low end stands for a high EC50, the high end for a low EC50. On to `CN(C(=O)[C@@H](Cc1ccc2ccccc2c1)N(C)C(=O)/C=C/CC(C)(C)N)[C@@H](CNC(=O)CCCO)Cc1ccccc1`, for which the pEC50 is 7.47.

Turning to `CN(C(=O)[C@@H](Cc1ccc2ccccc2c1)N(C)C(=O)/C=C/CC(C)(C)N)[C@H](Cc1cccs1)CN(C)S(C)(=O)=O`, the pEC50 was 8.52.

As for `CC(=O)NC[C@@H](Cc1ccccc1)N(C)C(=O)[C@@H](Cc1ccc2ccccc2c1)N(C)C(=O)/C=C/CC(C)(C)N`, the pEC50 was 7.60.

For the compound `CNC(=O)[C@@H](Cc1ccccc1)N(C)C(=O)[C@@H](Cc1ccc2ccccc2c1)N(C)C(=O)/C=C/CC(C)(C)N` [TABIMORELIN], the pEC50 was 8.57.

Compound `CN(C(=O)[C@@H](Cc1ccc2ccccc2c1)N(C)C(=O)/C=C/CC(C)(C)N)[C@@H](CNS(C)(=O)=O)Cc1ccccc1` showed a pEC50 of 8.60.
